Test results: US8557971B2, “Chimeric viral envelopes” (Aarhus Universitet, priority 2006, dated 2013)

Legend:
NIH 3T3 = assay: Titer (transduction) of chimeric envelope constructs on NIH 3T3 cells; type: cell-based, mouse; conditions: qualitative; FIG. 12
Procedure: Transfections were done by calcium phosphate precipitation method, described by Graham and van der Eb (Graham and van der Eb, 1973) leaving the calcium precipitate on the cells for 24 hours. 293T cells were transfected using 8 μg of envelope expression plasmid, 2 μg gagpol expression plasmid (Morita et al., 2000) and 1 μg of an EGFP expressing plasmid. EGFP was included as a visual aid to determine the success of transfections. Medium on the transfected cells was renewed every day until it was used for transduction, usually between 48 and 72 hours after transfection, depending on the number of green fluorescing cells.
The day before transduction, medium was changed from fetal calf serum to newborn calf serum containing medium. Semi-packaging cells (Bahrami et al., 2003) were seeded at concentration of 10^4 cells/cm^2 24 hours before transduction.
Supernatant from transfected cells was filtered (0.22μ). The supernatant with 6 μg/mL polybrene was added to the target cells. 24 hours later, the infected cells were selected using medium described before containing 600 μg/mL G418 for 10 days.

CXCR4 = target: T1, CXCR4 (Homo sapiens, UniProt P61073); assay: Flow cytometry of cell surface expression of CXCR4 on transduced D17 CD4 CXCR4 cells; type: cell-based; conditions: D17 CD4 CXCR4 cells transduced with envelope vector; FIG. 6
T1 construct: expressed in transfected cells; host or cells: D17 (dog) cells carrying CD4 and CXCR4
T1 sequence (P61073 whole entry): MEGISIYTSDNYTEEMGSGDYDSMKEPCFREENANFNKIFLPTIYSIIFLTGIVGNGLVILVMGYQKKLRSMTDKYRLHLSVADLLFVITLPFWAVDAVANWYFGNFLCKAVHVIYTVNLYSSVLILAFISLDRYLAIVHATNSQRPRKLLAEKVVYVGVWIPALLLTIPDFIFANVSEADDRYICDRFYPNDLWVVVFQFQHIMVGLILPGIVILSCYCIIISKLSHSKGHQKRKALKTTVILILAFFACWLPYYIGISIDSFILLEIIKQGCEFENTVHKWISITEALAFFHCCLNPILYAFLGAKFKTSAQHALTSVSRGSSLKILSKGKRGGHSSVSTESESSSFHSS
Procedure: Method: Flow cytometric analysis was carried out of Cell Surface Expression (CSE) of CXCR4 of cells transduced with vectors comprising the chimeric envelope polypeptide of the present invention. D17 CD4 CXCR4 cells were transduced with a vector expressing SL3-2 envelope with V3 loop inserted at positions indicated.
[…]; 315:51-61). The virus containing supernatant was subsequently used to transduce the D17 CXCR4CD4 cells.
Six chimeric variants have been tested (sequences used shown in SEQ ID NO: 3-8 and 42-47). In all panels the control D17 CD4 CXCR4 cells with […] envelope only (without the V3 insert) was tested against the same envelope comprising a V3 loop variant.
Protocol for flow cytometry: • Harvest cells (by nice trypzination) and spin down gently (1200 rpm, 5 min) • Keep cells on ice in all subsequent steps. • Wash once in wash buffer (2% Serum, 98% PBS—cold) ? […]

## wild-type SL3-2: SL3-2 murine leukaemia virus envelope polypeptide (SEQ ID NO: 2 / 60) [reference compound]
NIH 3T3
  Infection of NIH mouse cells: can be infected
CXCR4
  Binding of anti CXCR-4 antibody / CXCR-4 cell surface expression level: does not affect the expression levels of CXCR-4
